± gives the expanded uncertainty stated by the source.
assay: refractive index (Na D-line) (dimensionless); conditions: 293.15 K; 101.33 kPa; Liquid; Standard Abbe refractometry

Row | Structure (SMILES) | refractive index
1 | O [water] | 1.3328 ± 0.0005
2 | CCCCOC(C)=O [butyl ethanoate] | 1.3951 ± 0.0005

The next lines start with the values.

Row | refractive index | Structure (SMILES)
3 | 1.3955 ± 0.0005 | CC(C)CO [2-methyl-1-propanol]
4 | 1.3881 ± 0.0005 | CC(C)(C)O [2-methylpropan-2-ol]
5 | 1.3616 ± 0.0005 | CCO [ethanol]

From the NIST ThermoML archive (doi:10.1016/j.fluid.2014.08.014)
